Earlier results, collected in article PMC6530907 (Biochemistry, 2019).

Molecular target: YbtE
Settings: cited from earlier work

For `Nc1ncnc2c1ncn2[C@@H]1O[C@H](COS(=O)(=O)NC(=O)c2ccccc2O)[C@@H](O)[C@H]1O` [compound 1, 5´-O-[N-salicylsulfamoyl]adenosine], the Ki is listed as 700 pM.
